Like-named read-outs stand apart in the source and are kept apart here.
How the values were obtained:
Test in all cases: biochemical
Type in all cases: binding
[1] = target: panel of 468 diverse kinases (Homo sapiens, UniProt O00506); conditions: YSK1; 1000 nM; read-out: Percent Control
[2] = target: panel of 468 diverse kinases (Homo sapiens, UniProt O95382); conditions: ASK2; 1000 nM; read-out: Percent Control
[3] = target: panel of 468 diverse kinases (Homo sapiens, UniProt P00519, Q252H); conditions: 1000 nM, read-out: Percent Control
[4] = target: panel of 468 diverse kinases (Homo sapiens, UniProt P00519, T315I); conditions: 1000 nM, read-out: Percent Control
[5] = target: panel of 468 diverse kinases (Homo sapiens, UniProt P17948); conditions: FLT1; 1000 nM; read-out: Percent Control
Chain of panel of 468 diverse kinases (Homo sapiens, UniProt P17948) (P17948 27-1338 limits assumed): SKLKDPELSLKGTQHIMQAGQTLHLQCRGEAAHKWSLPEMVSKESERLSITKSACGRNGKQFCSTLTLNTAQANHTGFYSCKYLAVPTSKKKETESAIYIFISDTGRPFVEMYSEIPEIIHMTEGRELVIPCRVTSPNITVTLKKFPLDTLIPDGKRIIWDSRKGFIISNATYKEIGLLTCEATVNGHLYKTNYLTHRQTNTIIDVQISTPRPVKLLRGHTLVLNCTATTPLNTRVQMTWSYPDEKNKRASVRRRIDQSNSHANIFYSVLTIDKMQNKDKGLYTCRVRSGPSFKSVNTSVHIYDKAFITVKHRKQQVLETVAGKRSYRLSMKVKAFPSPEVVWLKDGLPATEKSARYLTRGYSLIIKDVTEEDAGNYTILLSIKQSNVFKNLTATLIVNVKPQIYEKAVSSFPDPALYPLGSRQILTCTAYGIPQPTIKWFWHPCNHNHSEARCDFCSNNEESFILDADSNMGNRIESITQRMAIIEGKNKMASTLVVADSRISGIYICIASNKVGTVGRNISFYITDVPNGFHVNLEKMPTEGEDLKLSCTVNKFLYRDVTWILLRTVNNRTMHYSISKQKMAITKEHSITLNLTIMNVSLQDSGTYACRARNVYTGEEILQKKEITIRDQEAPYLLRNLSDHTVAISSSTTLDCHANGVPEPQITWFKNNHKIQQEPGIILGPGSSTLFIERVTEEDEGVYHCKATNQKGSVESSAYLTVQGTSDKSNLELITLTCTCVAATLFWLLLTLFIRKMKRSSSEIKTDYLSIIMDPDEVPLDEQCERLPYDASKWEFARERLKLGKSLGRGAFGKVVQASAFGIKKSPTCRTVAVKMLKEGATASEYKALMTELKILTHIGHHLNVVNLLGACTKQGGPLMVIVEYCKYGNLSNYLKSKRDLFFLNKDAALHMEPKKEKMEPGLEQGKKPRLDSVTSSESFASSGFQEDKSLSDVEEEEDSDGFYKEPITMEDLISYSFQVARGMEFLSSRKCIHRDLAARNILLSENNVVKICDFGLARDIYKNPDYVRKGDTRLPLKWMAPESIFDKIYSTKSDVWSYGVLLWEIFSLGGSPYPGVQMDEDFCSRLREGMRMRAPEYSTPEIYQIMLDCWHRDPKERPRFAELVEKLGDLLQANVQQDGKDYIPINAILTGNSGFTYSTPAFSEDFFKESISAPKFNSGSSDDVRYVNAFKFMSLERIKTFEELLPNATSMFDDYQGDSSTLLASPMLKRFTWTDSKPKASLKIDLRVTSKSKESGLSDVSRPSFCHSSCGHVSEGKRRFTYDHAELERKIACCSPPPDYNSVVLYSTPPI

[6] = target: panel of 468 diverse kinases (Homo sapiens, UniProt P23443); conditions: S6K1; 1000 nM; read-out: Percent Control
[7] = target: panel of 468 diverse kinases (Homo sapiens, UniProt P27448); conditions: MARK3; 1000 nM; read-out: Percent Control
[8] = target: panel of 468 diverse kinases (Homo sapiens, UniProt P42336, M1043I); conditions: PIK3CA(M1043I); 1000 nM; read-out: Percent Control
[9] = target: panel of 468 diverse kinases (Homo sapiens, UniProt P42336, Q546K); conditions: PIK3CA(Q546K); 1000 nM; read-out: Percent Control
[10] = target: panel of 468 diverse kinases (Homo sapiens, UniProt P51817); conditions: PRKX; 1000 nM; read-out: Percent Control
[11] = target: panel of 468 diverse kinases (Homo sapiens, UniProt P53778); conditions: p38-gamma; 1000 nM; read-out: Percent Control
[12] = target: panel of 468 diverse kinases (Homo sapiens, UniProt P53779); conditions: JNK3; 1000 nM; read-out: Percent Control
[13] = target: panel of 468 diverse kinases (Homo sapiens, UniProt P57058); conditions: HUNK; 1000 nM; read-out: Percent Control
[14] = target: panel of 468 diverse kinases (Homo sapiens, UniProt Q07002); conditions: PCTK3; 1000 nM; read-out: Percent Control
[15] = target: panel of 468 diverse kinases (Homo sapiens, UniProt Q13554); conditions: CAMK2B; 1000 nM; read-out: Percent Control
[16] = target: panel of 468 diverse kinases (Homo sapiens, UniProt Q14164); conditions: IKK-epsilon; 1000 nM; read-out: Percent Control
[17] = target: panel of 468 diverse kinases (Homo sapiens, UniProt Q15349); conditions: 1000 nM, read-out: Percent Control
[18] = target: panel of 468 diverse kinases (Homo sapiens, UniProt Q15418); conditions: 1000 nM, read-out: Percent Control
[19] = target: panel of 468 diverse kinases (Homo sapiens, UniProt Q86Z02); conditions: HIPK1; 1000 nM; read-out: Percent Control
[20] = target: panel of 468 diverse kinases (Homo sapiens, UniProt Q8NEV4); conditions: MYO3A; 1000 nM; read-out: Percent Control
[21] = target: panel of 468 diverse kinases (Homo sapiens, UniProt Q8NG66); conditions: NEK11; 1000 nM; read-out: Percent Control
[22] = target: panel of 468 diverse kinases (Homo sapiens, UniProt Q8TF76); conditions: HASPIN; 1000 nM; read-out: Percent Control
[23] = target: panel of 468 diverse kinases (Homo sapiens, UniProt Q99640); conditions: PKMYT1; 1000 nM; read-out: Percent Control
[24] = target: panel of 468 diverse kinases (Homo sapiens, UniProt Q9BX84); conditions: TRPM6; 1000 nM; read-out: Percent Control
[25] = target: panel of 468 diverse kinases (Homo sapiens, UniProt Q9H0K1); conditions: SIK2; 1000 nM; read-out: Percent Control
[26] = target: panel of 468 diverse kinases (Homo sapiens, UniProt Q9UK32); conditions: 1000 nM, read-out: Percent Control
[27] = target: panel of 468 diverse kinases (Homo sapiens, UniProt Q9UKI8); conditions: TLK1; 1000 nM; read-out: Percent Control
[28] = target: panel of 468 diverse kinases (Homo sapiens, UniProt Q9UQM7); conditions: CAMK2A; 1000 nM; read-out: Percent Control
[29] = target: panel of 468 diverse kinases (Homo sapiens, UniProt Q9Y2H9); conditions: MAST1; 1000 nM; read-out: Percent Control
[30] = target: panel of 468 diverse kinases (Homo sapiens, UniProt Q9Y6M4); conditions: CSNK1G3; 1000 nM; read-out: Percent Control

Work on `COc1cc2nc(NC3CC3)nc(NC3CCN(C(C)C)CC3)c2cc1OC` [Formula IV] yielded a remaining activity at 1 µM [1] of 98%, a remaining activity at 1 µM [2] of 93% and a remaining activity at 1 µM ([3]; ABL1(Q252H)-nonphosphorylated) of 84%. It also gave a remaining activity at 1 µM ([3]; ABL1(Q252H)-phosphorylated) of 69%, a remaining activity at 1 µM ([4]; ABL1(T315I)-nonphosphorylated) of 100% and a remaining activity at 1 µM ([4]; ABL1(T315I)-phosphorylated) of 49%. The remaining activity at 1 µM [5] was 95%, the remaining activity at 1 µM [6] was 50% and the remaining activity at 1 µM [7] was 100%. The remaining activity at 1 µM [8] was 83%, the remaining activity at 1 µM [9] was 54% and the remaining activity at 1 µM [10] was 100%. The remaining activity at 1 µM [11] was 78%, the remaining activity at 1 µM [12] was 100% and the remaining activity at 1 µM [13] was 74%. The remaining activity at 1 µM [14] was 86%, the remaining activity at 1 µM [15] was 91% and the remaining activity at 1 µM [16] was 84%. It also gave a remaining activity at 1 µM ([17]; RSK3(Kin.Dom.1-N-terminal)) of 93%, a remaining activity at 1 µM ([17]; RSK3(Kin.Dom.2-C-terminal)) of 81% and a remaining activity at 1 µM ([18]; RSK1(Kin.Dom.1-N-terminal)) of 93%. It also gave a remaining activity at 1 µM ([18]; RSK1(Kin.Dom.2-C-terminal)) of 98%, a remaining activity at 1 µM [19] of 100% and a remaining activity at 1 µM [20] of 100%. For the same molecule, the remaining activity at 1 µM [21] was 42%, the remaining activity at 1 µM [22] was 71% and the remaining activity at 1 µM [23] was 93%. For the same molecule, the remaining activity at 1 µM [24] was 90%, the remaining activity at 1 µM [25] was 81% and the remaining activity at 1 µM ([26]; RSK4(Kin.Dom.1-N-terminal)) was 92%. The remaining activity at 1 µM ([26]; RSK4(Kin.Dom.2-C-terminal)) was 82%, the remaining activity at 1 µM [27] was 90% and the remaining activity at 1 µM [28] was 87%. It also gave a remaining activity at 1 µM [29] of 72% and a remaining activity at 1 µM [30] of 100%.

From patent US11542240B2, “STK19 inhibitors for treatment of cancer” (TRUSTEES OF BOSTON UNIVERSITY, priority 2018, dated 2023)
